From publication PMC10778198, “First-in-Human Dose-Escalation Study of the Novel Oral Depsipeptide Class I-Targeting HDAC Inhibitor Bocodepsin (OKI-179) in Patients with Advanced Solid Tumors” (Cancers, 2023)

System: patients with advanced solid tumors
Experiment: phase I dose escalation: safety, DLT, MTD, RP2D (CTCAE v. 5)
Type: in vivo
Text: Subsequent dosing cohorts were enrolled using a standard 3 + 3 design.
If any patient in any cohort of three patients developed a DLT during cycle 1, an additional three patients were recruited to expand the cohort to up to six evaluable patients. If two or more patients in any expanded cohort developed a DLT, this dose was considered non-tolerated, and dose escalation was discontinued. The MTD was defined as the highest dose level for which no more than one of six patients experienced a DLT.
Patients were continuously evaluated for adverse events throughout the study using the Common Terminology Criteria of Adverse Events (CTCAE v. 5). The patients underwent a clinical history and physical examination, an ECOG PS, a complete blood count (CBCs), chemistry, coagulation studies, urinalysis, a serum pregnancy test (as applicable), a triplicate ECG, an ophthalmology examination, and baseline tumor assessment at screening. During cycle 1, weekly history and physical examination, CBC, chemistry, coagulation parameters, urinalysis, and triplicate ECGs were performed; in subsequent cycles, weekly labs were limited to a CBC. Repeat ophthalmology examinations were performed at cycle 3, day 1, and at the end of treatment. Repeat tumor assessment was performed every 2 cycles (6 weeks) in accordance with RECIST 1.1.

[1] = All 4:3 Patients (n = 20), All Grades
[2] = All Continuous Patients (N=8), All grades
[3] = All Continuous Patients (N=8), G1
[4] = All Continuous Patients (N=8), G2
[5] = All Continuous Patients (N=8), G3

CC(C)[C@H](N)C(=O)SCC/C=C/[C@@H]1CC(=O)NCc2nc(cs2)C(=O)NC(C)(C)C(=O)N[C@@H](C(C)C)C(=O)O1 [OKI-179, Bocodepsin]
TEAE: Platelet count decreased (5:2, 300 mg (N=6), G2): 0 N (%) | TEAE: Pneumonitis (5:2, 300 mg (N=6), G2): 1 (17) N (%) | TEAE: Pneumothorax (5:2, 300 mg (N=6), G2): 0 N (%) | TEAE: Vomiting (5:2, 300 mg (N=6), G2): 1 (17) N (%) | TEAE: Abdominal pain (5:2, 300 mg (N=6), G3): 0 N (%) | TEAE: Anemia (5:2, 300 mg (N=6), G3): 1 (17) N (%) | TEAE: Aspartate aminotransferase increased (5:2, 300 mg (N=6), G3): 0 N (%) | TEAE: Back pain (5:2, 300 mg (N=6), G3): 1 (17) N (%) | TEAE: Bile duct stenosis (5:2, 300 mg (N=6), G3): 1 (17) N (%) | TEAE: Blood alkaline phosphatase increased (5:2, 300 mg (N=6), G3): 0 N (%) | TEAE: Decreased appetite (5:2, 300 mg (N=6), G3): 1 (17) N (%) | TEAE: Dehydration (5:2, 300 mg (N=6), G3): 0 N (%) | TEAE: Dysphagia (5:2, 300 mg (N=6), G3): 0 N (%) | TEAE: ECG QT prolonged (5:2, 300 mg (N=6), G3): 0 N (%) | TEAE: Enterococcal bacteremia (5:2, 300 mg (N=6), G3): 1 (17) N (%) | TEAE: Esophagitis (5:2, 300 mg (N=6), G3): 0 N (%) | TEAE: Esophagoscopy (5:2, 300 mg (N=6), G3): 0 N (%) | TEAE: Eye pain (5:2, 300 mg (N=6), G3): 0 N (%) | TEAE: Fatigue (5:2, 300 mg (N=6), G3): 0 N (%) | TEAE: Gastritis (5:2, 300 mg (N=6), G3): 0 N (%) | TEAE: Hypomagnesaemia (5:2, 300 mg (N=6), G3): 0 N (%) | TEAE: Myalgia (5:2, 300 mg (N=6), G3): 0 N (%) | TEAE: Nausea (5:2, 300 mg (N=6), G3): 1 (17) N (%) | TEAE: Neutrophil count decreased (5:2, 300 mg (N=6), G3): 0 N (%) | TEAE: Oropharyngeal pain (5:2, 300 mg (N=6), G3): 0 N (%) | TEAE: Pain in extremity (5:2, 300 mg (N=6), G3): 0 N (%) | TEAE: Paresthesia (5:2, 300 mg (N=6), G3): 0 N (%) | TEAE: Platelet count decreased (5:2, 300 mg (N=6), G3): 0 N (%) | TEAE: Pneumonitis (5:2, 300 mg (N=6), G3): 0 N (%) | TEAE: Pneumothorax (5:2, 300 mg (N=6), G3): 1 (17) N (%) | TEAE: Vomiting (5:2, 300 mg (N=6), G3): 0 N (%) | TEAE: Fatigue (5:2 cohort, 300 mg): 67% | TEAE: Nausea (5:2 cohort, 300 mg): 83% | TEAE: Vomiting (5:2 cohort, 300 mg): 50% | TEAE: decreased platelet count (5:2 cohort, 300 mg): 67% | TEAE: Anemia [1]: 8 (40) n (%) | TEAE: Back pain [1]: 4 (20) n (%) | TEAE: Cough [1]: 4 (20) n (%) | TEAE: Decreased appetite [1]: 7 (35) n (%) | TEAE: Diarrhea [1]: 5 (25) n (%) | TEAE: Dyspnea [1]: 3 (15) n (%) | TEAE: ECG QT prolonged [1]: 4 (20) n (%) | TEAE: Fatigue [1]: 8 (40) n (%) | TEAE: Headache [1]: 3 (15) n (%) | TEAE: Hypokalaemia [1]: 3 (15) n (%) | TEAE: Muscular weakness [1]: 4 (20) n (%) | TEAE: Nasal congestion [1]: 3 (15) n (%) | TEAE: Platelet count decreased [1]: 6 (30) n (%) | TEAE: Proteinuria [1]: 3 (15) n (%) | TEAE: Pyrexia [1]: 4 (20) n (%) | TEAE: Vomiting [1]: 6 (30) n (%) | TEAE: Weight decreased [1]: 3 (15) n (%) | TEAE: Anemia (All 4:3 Patients (n = 20), G1): 1 (5) n (%) | TEAE: Back pain (All 4:3 Patients (n = 20), G1): 3 (15) n (%) | TEAE: Cough (All 4:3 Patients (n = 20), G1): 3 (15) n (%) | TEAE: Decreased appetite (All 4:3 Patients (n = 20), G1): 4 (20) n (%) | TEAE: Diarrhea (All 4:3 Patients (n = 20), G1): 5 (25) n (%) | TEAE: Dyspnea (All 4:3 Patients (n = 20), G1): 3 (15) n (%) | TEAE: ECG QT prolonged (All 4:3 Patients (n = 20), G1): 1 (5) n (%) | TEAE: Fatigue (All 4:3 Patients (n = 20), G1): 3 (15) n (%) | TEAE: Headache (All 4:3 Patients (n = 20), G1): 3 (15) n (%) | TEAE: Hypokalaemia (All 4:3 Patients (n = 20), G1): 1 (5) n (%) | TEAE: Muscular weakness (All 4:3 Patients (n = 20), G1): 1 (5) n (%) | TEAE: Nasal congestion (All 4:3 Patients (n = 20), G1): 3 (15) n (%) | TEAE: Nausea (All 4:3 Patients (n = 20), G1): 9 (45) n (%) | TEAE: Platelet count decreased (All 4:3 Patients (n = 20), G1): 4 (20) n (%) | TEAE: Proteinuria (All 4:3 Patients (n = 20), G1): 0 n (%) | TEAE: Pyrexia (All 4:3 Patients (n = 20), G1): 3 (15) n (%) | TEAE: Vomiting (All 4:3 Patients (n = 20), G1): 5 (25) n (%) | TEAE: Weight decreased (All 4:3 Patients (n = 20), G1): 2 (10) n (%) | TEAE: Anemia (All 4:3 Patients (n = 20), G2): 2 (10) n (%) | TEAE: Back pain (All 4:3 Patients (n = 20), G2): 0 n (%) | TEAE: Cough (All 4:3 Patients (n = 20), G2): 1 (5) n (%) | TEAE: Decreased appetite (All 4:3 Patients (n = 20), G2): 3 (15) n (%) | TEAE: Diarrhea (All 4:3 Patients (n = 20), G2): 0 n (%) | TEAE: Dyspnea (All 4:3 Patients (n = 20), G2): 0 n (%) | TEAE: ECG QT prolonged (All 4:3 Patients (n = 20), G2): 0 n (%) | TEAE: Fatigue (All 4:3 Patients (n = 20), G2): 2 (10) n (%) | TEAE: Headache (All 4:3 Patients (n = 20), G2): 0 n (%) | TEAE: Hypokalaemia (All 4:3 Patients (n = 20), G2): 2 (10) n (%) | TEAE: Muscular weakness (All 4:3 Patients (n = 20), G2): 2 (10) n (%) | TEAE: Nasal congestion (All 4:3 Patients (n = 20), G2): 0 n (%) | TEAE: Nausea (All 4:3 Patients (n = 20), G2): 4 (20) n (%) | TEAE: Platelet count decreased (All 4:3 Patients (n = 20), G2): 2 (10) n (%) | TEAE: Proteinuria (All 4:3 Patients (n = 20), G2): 3 (15) n (%) | TEAE: Pyrexia (All 4:3 Patients (n = 20), G2): 0 n (%) | TEAE: Vomiting (All 4:3 Patients (n = 20), G2): 1 (5) n (%) | TEAE: Weight decreased (All 4:3 Patients (n = 20), G2): 1 (5) n (%) | TEAE: Anemia (All 4:3 Patients (n = 20), G3): 5 (25) n (%) | TEAE: Back pain (All 4:3 Patients (n = 20), G3): 1 (5) n (%) | TEAE: Cough (All 4:3 Patients (n = 20), G3): 0 n (%) | TEAE: Decreased appetite (All 4:3 Patients (n = 20), G3): 0 n (%) | TEAE: Diarrhea (All 4:3 Patients (n = 20), G3): 0 n (%) | TEAE: Dyspnea (All 4:3 Patients (n = 20), G3): 0 n (%) | TEAE: ECG QT prolonged (All 4:3 Patients (n = 20), G3): 3 (15) n (%) | TEAE: Fatigue (All 4:3 Patients (n = 20), G3): 3 (15) n (%) | TEAE: Headache (All 4:3 Patients (n = 20), G3): 0 n (%) | TEAE: Hypokalaemia (All 4:3 Patients (n = 20), G3): 0 n (%) | TEAE: Muscular weakness (All 4:3 Patients (n = 20), G3): 1 (5) n (%) | TEAE: Nasal congestion (All 4:3 Patients (n = 20), G3): 0 n (%) | TEAE: Nausea (All 4:3 Patients (n = 20), G3): 0 n (%) | TEAE: Platelet count decreased (All 4:3 Patients (n = 20), G3): 0 n (%) | TEAE: Proteinuria (All 4:3 Patients (n = 20), G3): 0 n (%) | TEAE: Pyrexia (All 4:3 Patients (n = 20), G3): 1 (5) n (%) | TEAE: Vomiting (All 4:3 Patients (n = 20), G3): 0 n (%) | TEAE: Weight decreased (All 4:3 Patients (n = 20), G3): 0 n (%) | TEAE: Abdominal pain [2]: 2 (25) N (%) | TEAE: Anemia [2]: 2 (25) N (%) | TEAE: Constipation [2]: 6 (75) N (%) | TEAE: Decreased appetite [2]: 2 (25) N (%) | TEAE: Diarrhea [2]: 3 (38) N (%) | TEAE: Dyspepsia [2]: 2 (25) N (%) | TEAE: ECG QT prolonged [2]: 2 (25) N (%) | TEAE: Fatigue [2]: 4 (50) N (%) | TEAE: Headache [2]: 3 (38) N (%) | TEAE: Nausea [2]: 6 (75) N (%) | TEAE: Pain [2]: 2 (25) N (%) | TEAE: Platelet count decreased [2]: 4 (50) N (%) | TEAE: Abdominal pain [3]: 1 (13) N (%) | TEAE: Anemia [3]: 0 N (%) | TEAE: Constipation [3]: 3 (38) N (%) | TEAE: Decreased appetite [3]: 1 (13) N (%) | TEAE: Diarrhea [3]: 3 (38) N (%) | TEAE: Dyspepsia [3]: 1 (13) N (%) | TEAE: ECG QT prolonged [3]: 1 (13) N (%) | TEAE: Fatigue [3]: 1 (13) N (%) | TEAE: Headache [3]: 3 (38) N (%) | TEAE: Nausea [3]: 4 (50) N (%) | TEAE: Pain [3]: 1 (13) N (%) | TEAE: Platelet count decreased [3]: 1 (13) N (%) | TEAE: Abdominal pain [4]: 1 (13) N (%) | TEAE: Anemia [4]: 2 (25) N (%) | TEAE: Constipation [4]: 3 (38) N (%) | TEAE: Decreased appetite [4]: 0 N (%) | TEAE: Diarrhea [4]: 0 N (%) | TEAE: Dyspepsia [4]: 1 (13) N (%) | TEAE: ECG QT prolonged [4]: 1 (13) N (%) | TEAE: Fatigue [4]: 2 (25) N (%) | TEAE: Headache [4]: 0 N (%) | TEAE: Nausea [4]: 2 (25) N (%) | TEAE: Pain [4]: 1 (13) N (%) | TEAE: Platelet count decreased [4]: 1 (13) N (%) | TEAE: Abdominal pain [5]: 0 N (%) | TEAE: Anemia [5]: 0 N (%) | TEAE: Constipation [5]: 0 N (%) | TEAE: Decreased appetite [5]: 1 (13) N (%) | TEAE: Diarrhea [5]: 0 N (%) | TEAE: Dyspepsia [5]: 0 N (%) | TEAE: ECG QT prolonged [5]: 0 N (%) | TEAE: Fatigue [5]: 1 (13) N (%)
